Data from ChEMBL document CHEMBL5441142, “Probing the Merck KGaA Open Global health library for novel starting points for anti-schistosomal drug discovery” (2024).
Calls of active or inactive are those of the source.

What was measured:
Schistosoma mansoni [1] = experiment: Ex vivo activity screen on S. mansoni adult worms at 20 uM. Parasite motility after compound treatment was assessed at 72 h using the WHO-TDR scoring metric.; type: functional, organism-based; parameters: test concentration 20 uM, temperature 37 degree C; settings: Puerto Rican
Schistosoma mansoni [2] = experiment: In vitro activity screen on S. mansoni schistosomula at 10 uM. Compound-induced effects were assessed by quantifying larva motility and phenotype using Roboworm.; type: functional, organism-based; parameters: test concentration 10 uM, temperature 37 degree C, time incubation 72 h; settings: Puerto Rican

COc1cccc(CNc2nnc(-c3c[nH]c4ncccc34)o2)c1
Ex-vivo screening (Schistosoma mansoni [1]): inactive
In vitro activity (Schistosoma mansoni [2]): Active

CNS(=O)(=O)c1ccccc1Nc1nc(Nc2cc(OC)c(OC)cc2C)ncc1Br
Ex-vivo screening (Schistosoma mansoni [1]): inactive
In vitro activity (Schistosoma mansoni [2]): Active

CNS(=O)(=O)c1ccccc1Nc1nc(Nc2ccc(N3CCOCC3)cc2OC)ncc1Br
Ex-vivo screening (Schistosoma mansoni [1]): inactive
In vitro activity (Schistosoma mansoni [2]): Active

COc1cc(Nc2cn(Cc3ccc(Oc4ccccc4)cc3)nn2)ccc1-n1cnc(C)c1
Ex-vivo screening (Schistosoma mansoni [1]): inactive
In vitro activity (Schistosoma mansoni [2]): Active

COc1ccc(OCCCO)cc1-c1cn2cc(C(=O)NCCc3c(OC)cccc3OC)sc2n1
Ex-vivo screening (Schistosoma mansoni [1]): inactive
In vitro activity (Schistosoma mansoni [2]): Active

COc1ccc(OCCCO)cc1-c1cn2cc(-c3nnc(NCCCCc4ccccc4)o3)ccc2n1
Ex-vivo screening (Schistosoma mansoni [1]): inactive
In vitro activity (Schistosoma mansoni [2]): Active

COCCCOc1ccc(OC)c(-c2cn3cc(C(=O)NCCc4c(OC)cc(OC)cc4OC)ccc3n2)c1
Ex-vivo screening (Schistosoma mansoni [1]): inactive
In vitro activity (Schistosoma mansoni [2]): Active

Clc1cccc(OCc2ncc3nccnc3n2)c1Cl
Ex-vivo screening (Schistosoma mansoni [1]): inactive
In vitro activity (Schistosoma mansoni [2]): Active

CCOc1cc(CCNC(=O)C[C@H]2S[C@@H](c3ccc(C#Cc4ccccc4)cc3)N(c3cccc(C(N)=O)c3)C2=O)ccc1OC
Ex-vivo screening (Schistosoma mansoni [1]): inactive
In vitro activity (Schistosoma mansoni [2]): Active

Cc1cn(-c2ccc(Nc3ncn(Cc4ccc(Cl)cc4)n3)cc2C#N)cn1
Ex-vivo screening (Schistosoma mansoni [1]): inactive
In vitro activity (Schistosoma mansoni [2]): Active

COCc1cc(-c2nc(-c3ccc(CNCC(=O)O)c(F)c3)no2)ccc1-c1ccccc1F
Ex-vivo screening (Schistosoma mansoni [1]): inactive
In vitro activity (Schistosoma mansoni [2]): Active

CCCc1nn(C)c2c(=O)[nH]c(-c3cc(S(=O)(=O)Oc4ccccn4)ccc3OCC)nc12
In vitro activity (Schistosoma mansoni [2]): inactive

COc1cc(C(=O)Nc2cn(Cc3ccc(Cl)cc3)nn2)ccc1-n1cnc(C)c1
In vitro activity (Schistosoma mansoni [2]): inactive

COc1ccc(OCC(=O)O)cc1-c1cn2cc(C(=O)NCCc3c(OC)cc(Cl)cc3OC)sc2n1
In vitro activity (Schistosoma mansoni [2]): inactive

O=C(O)Cc1ccc(-c2nc(NCc3ccc4c(c3)OCO4)c3c4c(sc3n2)CCCC4)cc1
In vitro activity (Schistosoma mansoni [2]): inactive

CCSc1cc(C)c(C(=O)N=C(N)N)cc1S(C)(=O)=O
In vitro activity (Schistosoma mansoni [2]): inactive

CCNC1=N[C@@H]2[C@@H](O)[C@H](O)[C@@H](Cn3cc(COc4ccc(Cl)cc4)nn3)O[C@@H]2S1
In vitro activity (Schistosoma mansoni [2]): inactive

CCCc1nn(C)c2c(=O)[nH]c(-c3cc(S(=O)(=O)Oc4ccc(=O)[nH]n4)ccc3OCC)nc12
In vitro activity (Schistosoma mansoni [2]): inactive

COc1cc(C(=O)Nc2cn(Cc3ccc4ccccc4c3)nn2)ccc1-n1cnc(C)c1
In vitro activity (Schistosoma mansoni [2]): inactive

Cc1cc(-c2ccc[nH]2)c(S(C)(=O)=O)cc1C(=O)N=C(N)N
In vitro activity (Schistosoma mansoni [2]): inactive

O=C(C1CCCCC1)N1CC(=O)N2CCc3ccccc3[C@H]2C1
In vitro activity (Schistosoma mansoni [2]): inactive

COc1ccc(OCC(=O)O)cc1-c1cn2cc(C(=O)NCCc3c(OC)cccc3OC)sc2n1
In vitro activity (Schistosoma mansoni [2]): inactive

COc1cc(OC)c(CCNC(=O)c2ccc3nc(-c4cc(OC)ccc4OC)cn3c2)c(OC)c1
In vitro activity (Schistosoma mansoni [2]): inactive

COc1cc(OC)c(CCNC(=O)c2cn3cc(-c4cc(OC)ccc4OC)nc3s2)c(OC)c1
Ex-vivo screening (Schistosoma mansoni [1]): inactive
In vitro activity (Schistosoma mansoni [2]): Active

CSc1cc(C)c(C(=O)N=C(N)N)cc1S(C)(=O)=O
In vitro activity (Schistosoma mansoni [2]): inactive

O=C(O)c1ccc(CCN2C(=O)CCN2CCC(O)Cc2cccc(Br)c2)cc1 (stereo unspecified)
In vitro activity (Schistosoma mansoni [2]): inactive

COc1cc(OC)c(CCNC(=O)c2cn3cc(-c4cc(OCCO)ccc4OC)nc3s2)c(OC)c1
Ex-vivo screening (Schistosoma mansoni [1]): inactive
In vitro activity (Schistosoma mansoni [2]): Active

O=C(C1CCCCC1)N1CC(=O)N2CCc3ccccc3[C@@H]2C1
Ex-vivo screening (Schistosoma mansoni [1]): inactive
In vitro activity (Schistosoma mansoni [2]): Active

COc1cc([S+]([O-])Cc2ccccc2)ccc1-c1nc2ccncc2[nH]1 (stereo unspecified)
In vitro activity (Schistosoma mansoni [2]): inactive

CC1=C(C(=O)N2CCc3ccc(C(F)(F)F)cc3C2)C2(CCN(C(C)(C)C)CC2)OC1=O
In vitro activity (Schistosoma mansoni [2]): inactive

CCC(C)Oc1ccc(-c2nc(-c3ccc([C@@H](C)NCC(=O)O)cc3)no2)cc1COC (stereo partly specified)
In vitro activity (Schistosoma mansoni [2]): inactive

CCN(CCC(=O)O)Cc1cccc(-c2noc(-c3ccc(-c4ccccc4F)c(COC)c3)n2)c1
In vitro activity (Schistosoma mansoni [2]): inactive

Cc1cc(OC(C)(C)C)c(S(C)(=O)=O)cc1C(=O)N=C(N)N
In vitro activity (Schistosoma mansoni [2]): inactive

CCC(CC)N1CCC2(CC1)OC(=O)C(C)=C2C(=O)N1CCc2ncc(C(F)(F)F)cc2C1
In vitro activity (Schistosoma mansoni [2]): inactive

CCCCc1nc2ccn(Cc3ccccc3C(=O)OCC)c(=O)c2n1Cc1ccc(-c2ccccc2-c2nn[nH]n2)cc1
In vitro activity (Schistosoma mansoni [2]): inactive

CC1=C(C(=O)N2CCc3c(F)cc(C(F)(F)F)cc3C2)C2(CCN(C3CCOCC3)CC2)OC1=O
In vitro activity (Schistosoma mansoni [2]): inactive

COc1cc(C(=O)N(C)C)ccc1-c1cc2nccc(-c3ccc4ccncc4c3)c2o1
In vitro activity (Schistosoma mansoni [2]): inactive

CC1=C(C(=O)N2Cc3cc(C(F)(F)F)ccc3C(C)(C)C2)C2(CCN(C3CCOCC3)CC2)OC1=O
In vitro activity (Schistosoma mansoni [2]): inactive

CC(Sc1nc(-c2ccc(Cl)cc2)c(-c2ccc(Cl)cc2)o1)C(=O)NCC(=O)O (stereo unspecified)
In vitro activity (Schistosoma mansoni [2]): inactive

CO[C@@H]1COCC[C@@H]1N1CCC2(CC1)OC(=O)C(C)=C2C(=O)N1CCc2ccc(C(F)(F)F)cc2C1
In vitro activity (Schistosoma mansoni [2]): inactive

COc1ccc(N2C[C@H](CN3CCC(O)(c4ccc5c(c4)OCO5)CC3)OC2=O)cc1
In vitro activity (Schistosoma mansoni [2]): inactive

CCc1cc(C(=O)NCc2ccc(OC)c(Cl)c2)c(NC(=O)c2ccc(C(=O)O)cc2)s1
In vitro activity (Schistosoma mansoni [2]): inactive

CCCSc1cc(C)c(C(=O)N=C(N)N)cc1S(C)(=O)=O
In vitro activity (Schistosoma mansoni [2]): inactive

CN(C)C(=O)/C=C/C(=O)c1ccc(SCc2ccc(Cl)cc2Cl)cc1
Ex-vivo screening (Schistosoma mansoni [1]): inactive
In vitro activity (Schistosoma mansoni [2]): Active

CS(=O)(=O)c1cccc(-c2ccc(Cn3cc(C(=O)O)c(=O)c4cccc(F)c43)cn2)c1
In vitro activity (Schistosoma mansoni [2]): inactive

Cc1cc(Oc2cccnc2)c([N+](=O)[O-])cc1C(=O)N=C(N)N
In vitro activity (Schistosoma mansoni [2]): inactive

COc1cc(OC)c(CCNC(=O)c2cn3cc(-c4cc(OCC(N)=O)ccc4OC)nc3s2)c(OC)c1
In vitro activity (Schistosoma mansoni [2]): inactive

COc1cc(OC)c(CCNC(=O)c2cn3cc(-c4cc(OCC#N)ccc4OC)nc3s2)c(OC)c1
Ex-vivo screening (Schistosoma mansoni [1]): inactive
In vitro activity (Schistosoma mansoni [2]): Active

Cc1ccccc1-c1ccc(-c2nc(-c3ccc(CN(C)CCC(=O)O)cc3)no2)cc1C(F)(F)F
In vitro activity (Schistosoma mansoni [2]): inactive

CCN1CCC2(CC1)OC(=O)C(C)=C2C(=O)N1C[C@@H]2C[C@H]1CN2c1nccc(C(F)(F)F)n1
In vitro activity (Schistosoma mansoni [2]): inactive

COc1cc(OC)c(CCNC(=O)c2cn3cc(-c4cc(OCC(O)CO)ccc4OC)nc3s2)c(OC)c1 (stereo unspecified)
In vitro activity (Schistosoma mansoni [2]): inactive

CC1=C(C(=O)N2CCc3ccc(C(F)(F)F)cc3C2)C2(CCN(C3CCOC(C)(C)C3)CC2)OC1=O (stereo unspecified)
In vitro activity (Schistosoma mansoni [2]): inactive

COCc1cc(-c2nc(-c3cccc(CN(C)CC(=O)O)c3)no2)ccc1-c1cccc(F)c1C
In vitro activity (Schistosoma mansoni [2]): inactive

CCN(CCC(=O)O)Cc1cccc(-c2noc(-c3ccc(-c4ccccc4C)c(COC)c3)n2)c1
In vitro activity (Schistosoma mansoni [2]): inactive

Cc1cc(Cl)c(-n2cccc2)cc1C(=O)N=C(N)N
In vitro activity (Schistosoma mansoni [2]): inactive

CCCCc1nc2ccn(Cc3ccccc3C(=O)O)c(=O)c2n1Cc1ccc(-c2ccccc2-c2nn[nH]n2)cc1
In vitro activity (Schistosoma mansoni [2]): inactive

CC1=C(C(=O)N2CCc3ccc(C(F)(F)F)cc3C2)C2(CCN(C3CCCC3)CC2)OC1=O
In vitro activity (Schistosoma mansoni [2]): inactive

CC1=C(C(=O)N2CCc3ncc(C(F)(F)F)cc3C2)C2(CCN(CC3CCOC3)CC2)OC1=O (stereo unspecified)
In vitro activity (Schistosoma mansoni [2]): inactive

CC1=C(C(=O)N2Cc3cc(C(F)(F)F)ccc3C3(CC3)C2)C2(CCN(C3CCOCC3)CC2)OC1=O
In vitro activity (Schistosoma mansoni [2]): inactive

COc1ccc(OC)c(CCNC(=O)c2ccc3nc(-c4cc(OCCCO)ccc4OC)cn3c2)c1
Ex-vivo screening (Schistosoma mansoni [1]): inactive
In vitro activity (Schistosoma mansoni [2]): Active

COc1cc([S+]([O-])C(C)C)ccc1-c1nc2ccncc2[nH]1 (stereo unspecified)
In vitro activity (Schistosoma mansoni [2]): inactive

O=C(O)c1ccc(-c2nc(NCc3cccnc3)c3c(n2)sc2ccccc23)cc1
In vitro activity (Schistosoma mansoni [2]): inactive

CN(C)c1nc2c(s1)CCc1[nH]c(=O)c(C#N)cc1-2
In vitro activity (Schistosoma mansoni [2]): inactive

O=C(O)c1ccc(-c2nc(NCc3ccc4c(c3)OCO4)c3c4c(oc3n2)CCCC4)cc1
In vitro activity (Schistosoma mansoni [2]): inactive

COc1ccc(CNc2nc3c(ccc4[nH]c(=O)c(C#N)cc43)s2)cc1
Ex-vivo screening (Schistosoma mansoni [1]): Active
EC50 (Schistosoma mansoni [2]): 4.35 µM (active)

O=C(O)c1ccc(-c2nc(NCc3ccccc3)c3c4c(sc3n2)CCCC4)cc1
In vitro activity (Schistosoma mansoni [2]): inactive

CNC(=O)c1cc(Oc2ccc(NC(=O)Nc3cc(C(F)(F)F)ccc3-n3ccnc3)cc2)ccn1
In vitro activity (Schistosoma mansoni [2]): inactive

CN(CCCCc1ccc(F)cc1)CCC(=O)c1ccc2[nH]c(=O)oc2c1
In vitro activity (Schistosoma mansoni [2]): inactive

CCCc1nn(C)c2c(=O)[nH]c(-c3cc(S(=O)(=O)Oc4nc(C)ccc4C#N)ccc3OCC)nc12
In vitro activity (Schistosoma mansoni [2]): inactive

CCCc1nn(C)c2c(=O)[nH]c(-c3cc(C(=O)N=C(N)N)ccc3OCC)nc12
In vitro activity (Schistosoma mansoni [2]): inactive

Cn1nc(O[C@@H]2c3cc(C#N)ccc3OC(C)(C)[C@H]2O)ccc1=O
In vitro activity (Schistosoma mansoni [2]): inactive

CCCCc1nc2ccn(CC(=O)N3CCCCC3)c(=O)c2n1Cc1ccc(-c2ccccc2S(=O)(=O)NC(=O)OCc2ccccc2)cc1F
In vitro activity (Schistosoma mansoni [2]): inactive

COc1cc(C(=O)NCc2cn(Cc3ccc(Cl)c(Cl)c3)nn2)ccc1-c1ccnc(C)c1
In vitro activity (Schistosoma mansoni [2]): inactive
